{
  "source": "patent US20070092561A1",
  "about": "“Water-Soluble Aspirin Composition” (priority 2005, published 2007)",
  "origin": "cited, not measured here",
  "note": "Like-named read-outs stand apart in the source and are kept apart here.",
  "data": [
    {"compound": "CC(=O)Oc1ccccc1C(=O)O", "note": "[aspirin]", "values": [
      {"measurement": "occurrence of side-effects (gastric irritation, inflammation, heartburn, nausea, pain)", "setting": "aspirin users", "result": "2-10%"},
      {"measurement": "occurrence of side-effects (gastric irritation, inflammation, heartburn, nausea, pain)", "setting": "in chronic arthritis", "result": "about 25%"}
    ]}
  ]
}
